Assay results taken from patent US10307388B2, “Compositions and methods for diagnosis and treatment of inflammation” (The United States of America as represented by the …, priority 2016, dated 2019).
“Also recorded” adds a separate entry of the source.

Experiments:
[1] = test system: erythrocyte sedimentation rate; assay: Regression of serum fatty acid forms against erythrocyte sedimentation rate in dolphins on modified diet; type: in vivo, bottlenose dolphin (Tursiops truncatus); conditions: for Serum hexosylceramide concentration resulting in erythrocyte sedimentation rates lower than 15 mm/hr (threshold effect): FIGS. 3A-3B
[2] = Total serum fatty acid concentrations in dolphins fed modified fish diet; conditions: for Total serum fatty acid concentration: case dolphins fed modified diet (n = 20); for concentration at 0 month / concentration at 1 month / concentration at 3 month / concentration at 6 month: bottlenose dolphin (Tursiops truncatus)
Method: This study examined the impact on inflammation by modifying fatty acid profiles through the diet in 20 MMP dolphins (“Group A dolphins”). The dolphins lived in netted enclosures within San Diego Bay. […] On blood collection days, Group A dolphins were fed one-third of their daily diet in the morning after their routine overnight fast and 2h postprandial, in-water, and trained blood samples were drawn (typically near 10:00 a.m.). An additional ten MMP dolphins (“Group B dolphins”) were maintained on the baseline capelin diet throughout the study period.
Two hour post-prandial samples were collected from Group A and Group B dolphins at baseline (month 0) and at three time points following the switch to the modified diet: months 1, 3, and 6. Dolphins were assessed for changes in serum fatty acid concentrations (total and various forms) and indices of inflammation, including erythrocyte sedimentation rate and alkaline phosphatase.
Blood was collected into BD Vacutainer serum separator tubes (for serum fatty acid profiles) or an evacuated tube containing EDTA (K3). Serum separator tubes were centrifuged at 3000 rpm for 10 minutes within 30 to 60 minutes of collection and chilled during processing until shipment. Serum was transferred to cryovials and stored at −80° C. until shipment on dry ice via overnight courier to the reference laboratories.
Total serum fatty acid profiles were performed by the Genetics Laboratories at the Kennedy Krieger Institute. […] Each run was required to pass clinical laboratory quality control before the data were released. […] Percent fatty acids in serum was used as a sturdier index to help reduce potential variability in serum among study dolphins.
Statistical analyses were conducted using World Programming System software (World Programming Ltd., Hampshire, United Kingdom). Significance was defined as a P value less than or equal to 0.05. Mean daily dietary intake of individual fatty acids were compared between pre-study and in-study diets for Group A and Group B dolphins using Wilcoxon rank sum tests. Indices of inflammation (erythrocyte sedimentation rate and alkaline phosphatase) and serum fatty acid concentrations (total and individual classes) from Month 1, 3, and 6 were compared with Month 0 for Group A and Group B dolphins using repeated measures ANOVA (MIXED model). […] Fatty acids that were independent predictors of erythrocyte sedimentation rate were then tested for linear associations with erythrocyte sedimentation rate using simple linear regressions. Fatty acids that were independent predictors of erythrocyte sedimentation rate and had inverse linear associations with these indices (defined as a P value less than or equal to 0.05 and an R^2 greater than or equal to 0.1), were characterized as fatty acids that independently predicted improved inflammation.

[3] = Serum fatty acid form concentrations (complex lipidomics) in dolphins fed modified fish diet; type: in vivo; conditions: bottlenose dolphin (Tursiops truncatus), case dolphins fed modified diet (n = 20), read-out: Serum concentration, FFA (free fatty acid) form; for concentration at 0 month: Month 0 (baseline); for concentration at 1 month: Month 1; for concentration at 3 month: Month 3; for concentration at 6 month: Month 6
Method: Determination of serum fatty acid concentrations, including a variety of fatty acid classes, were performed by Metabolon, Inc. (Durham, N.C.) using complex lipidomics. […] The extracts were concentrated under nitrogen and reconstituted in 0.25 mL of dichloromethane:methanol (50:50) containing 10 mM ammonium acetate. The extracts were placed in vials for infusion-MS analyses, performed on a SelexION equipped Sciex 5500 QTRAP using both positive and negative mode electrospray. Each sample was subjected to 2 analyses, with IMS-MS conditions optimized for lipid classes monitored in each analysis. The 5500 QTRAP was operated in MRM mode to monitor the transitions for over 1,100 lipids from up to 14 lipid classes. Individual lipid species were quantified based on the ratio of signal intensity for target compounds to the signal intensity for an assigned internal standard of known concentration. Lipid class concentrations were calculated from the sum of all molecular species within a class, and fatty acid compositions were determined by calculating the proportion of individual fatty acids within each class.

IL-6, IL-18, and MCP-1 = assay: Serum adipokines (cytokines) in high fat diet induced obese mice after daily oral C15:0; type: in vivo, C57BL/6J mice; conditions: obese HFD mice
Method: (§1) This study examined the impact of daily oral administration of synthetic pentadecanoic acid (C15:0) on inflammation in an obese mouse model. Twenty C57BL/6J mice were fed a high fat diet (HFD) (D12492, 60% kcals fat) for 8 weeks. Study mice were then divided into the following two groups of ten: vehicle controls and C15:0-treated (5 mg/kg body weight). The predicted therapeutic dose of 5 mg/kg was based upon modified diet studies in the dolphin model.

[4] = Tolerability, body weight and food intake in high fat diet obese mice given C15:0; type: in vivo
Method: as §1
Mice in the C15:0 treatment group tolerated the test article throughout the study. […] No changes were found in body weight, percent body weight change, or food intake when comparing the study groups (not shown).

[5] = Month 0 (baseline), 2h postprandial

## CCCCCCCCCCCCCCCCCCCCCC(=O)O [C22:0, behenic acid]
[1]
  Serum hexosylceramide concentration resulting in erythrocyte sedimentation rates lower than 15 mm/hr (threshold effect): greater than 0.11 uM
[2]; [5]
  Total serum fatty acid concentration: 23 ± 4 µM
[2]; Month 1, 2h postprandial
  Total serum fatty acid concentration: 21 ± 3 µM
[2]; Month 3, 2h postprandial
  Total serum fatty acid concentration: 23 ± 3 µM
[2]; Month 6, 2h postprandial
  Total serum fatty acid concentration: 24 ± 5 µM

## CCCCCCCCCCCCCCC(=O)O [C15:0, pentadecanoic acid]
[1]; FIGS. 2A-2B
  Serum cholesterol ester concentration resulting in erythrocyte sedimentation rates lower than 15 mm/hr (threshold effect): greater than 60 uM
[3]; serum, oral
  concentration at 0 month: 3.8 ± 1.3 µM
  concentration at 1 month: 4.2 ± 1.5 µM
  concentration at 3 month: 3.6 ± 0.8 µM
  concentration at 6 month: 3.8 ± 1.3 µM
IL-6, IL-18, and MCP-1; 5 mg/kg daily gastric gavage, Day 84 (n = 10), vehicle control 60 ± 68
  Serum IL-6: 19 ± 11
IL-6, IL-18, and MCP-1; 5 mg/kg daily gastric gavage, Day 84 (n = 10), vehicle control 83 ± 31
  Serum MCP-1: 52 ± 25
IL-6, IL-18, and MCP-1; 5 mg/kg daily gastric gavage, Day 84 (n = 10), vehicle control 206 ± 84
  Serum IL-18: 101 ± 86
IL-6, IL-18, and MCP-1; 5 mg/kg daily oral, 12 weeks, 5 mg/kg
  Inflammation and adipokines (IL-6, IL-18, and MCP-1) compared to vehicle controls: lower; also recorded: reduced
[2]; Month 1, 2h postprandial
  Total serum fatty acid concentration: 94 ± 33 µM
[4]; mouse, in vivo, 5 mg/kg
  Early mortalities in treated group: no early mortalities
  Tolerability of the test article: tolerated
[4]; obese HFD mice, 5 mg/kg daily gastric gavage, 12 weeks
  Body weight, percent body weight change, or food intake vs control group: No changes

## CCCCCCCCCCCCCCCCCCCCCCCC(=O)O [C24:0, lignoceric acid]
[2]; serum, oral
  concentration at 0 month: 18 ± 3 µM
  concentration at 1 month: 17 ± 3 µM
  concentration at 3 month: 18 ± 3 µM
  concentration at 6 month: 18 ± 3 µM

## CCCCCCCCCCCCCCCCC(=O)O [C17:0, heptadecanoic acid]
[1]; FIGS. 2A-2B
  Serum phosphatidylcholine concentration resulting in erythrocyte sedimentation rates lower than 15 mm/hr (threshold effect): greater than 30 uM
[2]; Month 1, 2h postprandial
  Total serum fatty acid concentration: 82 ± 21 µM

## CCCCCCCCCCCCCCCCCCCCCCCCCC(=O)O [C26:0]
[2]; [5]
  Total serum fatty acid concentration: 1.0 ± 0.1 µM
[2]; Month 1, 2h postprandial
  Total serum fatty acid concentration: 0.8 ± 0.1 µM
[2]; Month 3, 2h postprandial
  Total serum fatty acid concentration: 0.9 ± 0.1 µM
[2]; Month 6, 2h postprandial
  Total serum fatty acid concentration: 0.9 ± 0.1 µM

## CCCCCCCCCCCCCCCC(=O)O [C16:0, palmitic acid]
[2]; [5]
  Total serum fatty acid concentration: 1445 ± 194 µM
[2]; Month 1, 2h postprandial
  Total serum fatty acid concentration: 1372 ± 199 µM
[2]; Month 3, 2h postprandial
  Total serum fatty acid concentration: 1505 ± 221 µM
[2]; Month 6, 2h postprandial
  Total serum fatty acid concentration: 1450 ± 155 µM

## CCCCCCCCCCCCCCCCCCCC(=O)O [C20:0, arachidic acid]
[1]
  Serum hexosylceramide concentration resulting in erythrocyte sedimentation rates lower than 15 mm/hr (threshold effect): greater than 0.20 uM
[3]; in vivo
  concentration at 0 month: 6.6 ± 2.5 µM
  concentration at 1 month: 4.4 ± 1.4 µM
  concentration at 3 month: 5 ± 2.3 µM
  concentration at 6 month: 17 ± 10 µM
[2]; in vivo
  concentration at 0 month: 94 ± 22 µM
  concentration at 1 month: 87 ± 17 µM
  concentration at 3 month: 98 ± 17 µM
  concentration at 6 month: 96 ± 15 µM
